Reference: ChEMBL document CHEMBL3632603, “Synthesis of biscoumarin and dihydropyran derivatives with promising antitumor and antibacterial activities” (Bioorg Med Chem Lett, 2015)
Values after ≈ are worked out from the molar mass of the structure shown.

Assays:
Staphylococcus aureus [1] = assay: Antibacterial activity against Staphylococcus aureus ATCC 29213 after 20 hrs by CLSI broth microdilution method; format: functional
4T1 [2] = assay: Induction of apoptosis in mouse 4T1 cells assessed as necrotic cells at 5 ug/ml after 48 hrs by Annexin V/Alexa Fuor 488/PI-staining based flow cytometric analysis (Rvb=0.5%); format: functional
Staphylococcus aureus [3] = assay: Antibacterial activity against methicillin-resistant Staphylococcus aureus Mu50 ATCC 700699 after 20 hrs by CLSI broth microdilution method; format: functional
4T1 [4] = assay: Induction of apoptosis in mouse 4T1 cells assessed as early apoptotic cells at 5 ug/ml after 48 hrs by Annexin V/Alexa Fuor 488/PI-staining based flow cytometric analysis (Rvb=4.4%); format: functional
[5] = Cytotoxicity against human PANC1 cells after 48 hrs by MTT assay; format: functional, cell-based; conditions: PANC-1, 48 h
4T1 [6] = assay: Cytotoxicity against mouse 4T1 cells after 48 hrs by MTT assay; format: functional, cell-based; conditions: 4T1, 48 h
Staphylococcus aureus [7] = assay: Antibacterial activity against methicillin-resistant Staphylococcus aureus XJ 75302 after 20 hrs by CLSI broth microdilution method; format: functional
4T1 [8] = assay: Induction of apoptosis in mouse 4T1 cells assessed as increase in early and late apoptotic cells at 5 ug/ml after 48 hrs by Annexin V/Alexa Fuor 488/PI-staining based flow cytometric analysis relative to vehicle control; format: functional
[9] = Cytotoxicity against human HuTu 80 cells after 48 hrs by MTT assay; format: functional, cell-based; conditions: HuTu80, 48 h
Staphylococcus aureus [10] = assay: Antibacterial activity against methicillin-resistant Staphylococcus aureus USA 300 LAC after 20 hrs by CLSI broth microdilution method; format: functional
4T1 [11] = assay: Induction of apoptosis in mouse 4T1 cells assessed as viable cells at 5 ug/ml after 48 hrs by Annexin V/Alexa Fuor 488/PI-staining based flow cytometric analysis (Rvb= 91.7%); format: functional; conditions: 4T1, 48 h, read-out: Activity
4T1 [12] = assay: Induction of apoptosis in mouse 4T1 cells assessed as late apoptotic cells at 5 ug/ml after 48 hrs by Annexin V/Alexa Fuor 488/PI-staining based flow cytometric analysis (Rvb=3.5%); format: functional

| Compound | MIC (Staphylococcus aureus [1]; ATCC 29213, 20 h) | Activity (4T1 [2]) | MIC (Staphylococcus aureus [3]; Mu50 ATCC 700699, 20 h) | Activity (4T1 [4]) | IC50 [5] | IC90 [5] | IC50 (4T1 [6]) | IC90 (4T1 [6]) | MIC (Staphylococcus aureus [7]; XJ 75302, 20 h) | fold change (FC) (4T1 [8]) | IC50 [9] | IC90 [9] | MIC (Staphylococcus aureus [10]) | viability at 5 µg/mL (4T1 [11]) | Activity (4T1 [12]) | MIC (Staphylococcus aureus [1]) | MIC (Staphylococcus aureus [3]) | MIC (Staphylococcus aureus [7]) |
| --- | --- | --- | --- | --- | --- | --- | --- | --- | --- | --- | --- | --- | --- | --- | --- | --- | --- | --- |
| O=c1oc2ccccc2c(O)c1C(c1ccc(Br)cc1)c1c(O)c2ccccc2oc1=O | 16 µg/mL (≈ 32.6 µM) | 0.3% | 8 µg/mL (≈ 16.3 µM) | 44% | 31.8 µg/mL (≈ 64.7 µM) | 61.4 µg/mL (≈ 125 µM) | 19.3 µg/mL (≈ 39.2 µM) | 36.7 µg/mL (≈ 74.7 µM) | 16 µg/mL (≈ 32.6 µM) | >8 | 29.7 µg/mL (≈ 60.5 µM) | 52.6 µg/mL (≈ 107 µM) | 8 µg/mL (≈ 16.3 µM) | 30.2% | 25.5% |  |  |  |
| N#CC1=C(N)Oc2c(c(=O)oc3ccccc23)C1c1ccc(C#N)cc1 (stereo not given) | > 256 µg/mL |  | > 256 µg/mL |  | 150 µg/mL (≈ 439 µM) | 286 µg/mL (≈ 838 µM) | 115 µg/mL (≈ 336 µM) | 208 µg/mL (≈ 609 µM) | > 256 µg/mL |  | 121 µg/mL (≈ 355 µM) | 221 µg/mL (≈ 648 µM) | > 256 µg/mL |  |  |  |  |  |
| CO/N=C(\C(=O)N[C@@H]1C(=O)N2C(C(=O)O)=C(CSc3nc(=O)c(O)nn3C)CS[C@H]12)c1csc(N)n1 [CEFTRIAXONE] | 2 µg/mL (≈ 3.61 µM) |  | 256 µg/mL (≈ 462 µM) |  |  |  |  |  | > 256 µg/mL |  |  |  | 32 µg/mL (≈ 57.7 µM) |  |  |  |  |  |
| O=c1oc2ccccc2c(O)c1C(c1ccc(F)c(Cl)c1)c1c(O)c2ccccc2oc1=O | 16 µg/mL (≈ 34.4 µM) |  | 8 µg/mL (≈ 17.2 µM) |  | 30.8 µg/mL (≈ 66.2 µM) | 55.8 µg/mL (≈ 120 µM) | 22.9 µg/mL (≈ 49.3 µM) | 43.2 µg/mL (≈ 92.9 µM) | 16 µg/mL (≈ 34.4 µM) |  | 32.6 µg/mL (≈ 70.1 µM) | 64.5 µg/mL (≈ 139 µM) | 8 µg/mL (≈ 17.2 µM) |  |  |  |  |  |
| CC1(C)CC(=O)C2=C(C1)OC(N)=C(C#N)C2c1cccc(C(F)(F)F)c1 (stereo not given) | > 256 µg/mL |  | > 256 µg/mL |  | 248 µg/mL (≈ 685 µM) | 503 µg/mL (≈ 1390 µM) | 287 µg/mL (≈ 791 µM) | 575 µg/mL (≈ 1590 µM) | > 256 µg/mL |  | 388 µg/mL (≈ 1070 µM) | 788 µg/mL (≈ 2170 µM) | > 256 µg/mL |  |  |  |  |  |
| CC1(C)CC(=O)C2=C(C1)OC(N)=C(C#N)C2c1cccc(Oc2ccccc2)c1 (stereo not given) | > 256 µg/mL |  | > 256 µg/mL |  | 383 µg/mL (≈ 991 µM) | 759 µg/mL (≈ 1960 µM) | 481 µg/mL (≈ 1240 µM) | 927 µg/mL (≈ 2400 µM) | > 256 µg/mL |  | 900 µg/mL (≈ 2330 µM) | 1700 µg/mL (≈ 4400 µM) | > 256 µg/mL |  |  |  |  |  |
| GENTAMICIN |  |  |  |  |  |  |  |  |  |  |  |  | 0.25 µg/mL |  |  | 0.12 µg/mL | 32 µg/mL | 64 µg/mL |
| N#CC1=C(N)Oc2c(c(=O)oc3ccccc23)C1c1ccc(Br)cc1 (stereo not given) | > 256 µg/mL |  | > 256 µg/mL |  | 176 µg/mL (≈ 446 µM) | 328 µg/mL (≈ 829 µM) | 96.2 µg/mL (≈ 243 µM) | 172 µg/mL (≈ 435 µM) | > 256 µg/mL |  | 140 µg/mL (≈ 355 µM) | 274 µg/mL (≈ 692 µM) | > 256 µg/mL |  |  |  |  |  |
| N#CC1=C(N)OC2=C(C(=O)CCC2)C1c1cccc(Br)c1 (stereo not given) | > 256 µg/mL |  | > 256 µg/mL |  | 368 µg/mL (≈ 1070 µM) | 704 µg/mL (≈ 2040 µM) | 157 µg/mL (≈ 455 µM) | 287 µg/mL (≈ 830 µM) | > 256 µg/mL |  | 281 µg/mL (≈ 814 µM) | 543 µg/mL (≈ 1570 µM) | > 256 µg/mL |  |  |  |  |  |
| CC(C)(O/N=C(\C(=O)N[C@@H]1C(=O)N2C(C(=O)[O-])=C(C[n+]3ccccc3)CS[C@H]12)c1csc(N)n1)C(=O)O [CEFTAZIDIME] | > 8 µg/mL |  | 256 µg/mL (≈ 468 µM) |  |  |  |  |  | > 256 µg/mL |  |  |  | 64 µg/mL (≈ 117 µM) |  |  |  |  |  |
| CC(C)(C)c1ccc(C(c2c(O)c3ccccc3oc2=O)c2c(O)c3ccccc3oc2=O)cc1 | 16 µg/mL (≈ 34.2 µM) |  | 16 µg/mL (≈ 34.2 µM) |  | 28 µg/mL (≈ 59.7 µM) | 53.2 µg/mL (≈ 113 µM) | 24.6 µg/mL (≈ 52.4 µM) | 47.1 µg/mL (≈ 101 µM) | 16 µg/mL (≈ 34.2 µM) |  | 31.1 µg/mL (≈ 66.5 µM) | 55.5 µg/mL (≈ 119 µM) | 32 µg/mL (≈ 68.3 µM) |  |  |  |  |  |
| C[C@H]1COc2c(N3CCN(C)CC3)c(F)cc3c(=O)c(C(=O)O)cn1c23.C[C@H]1COc2c(N3CCN(C)CC3)c(F)cc3c(=O)c(C(=O)O)cn1c23.O [LEVOFLOXACIN] | < 0.125 µg/mL |  | 4 µg/mL |  |  |  |  |  | 4 µg/mL |  |  |  | 8 µg/mL |  |  |  |  |  |
| COc1ccc(C2C(C#N)=C(N)Oc3c2c(=O)oc2ccccc32)cc1OC (stereo not given) | > 256 µg/mL |  | > 256 µg/mL |  | 168 µg/mL (≈ 448 µM) | 310 µg/mL (≈ 825 µM) | 107 µg/mL (≈ 283 µM) | 194 µg/mL (≈ 516 µM) | > 256 µg/mL |  | 132 µg/mL (≈ 352 µM) | 232 µg/mL (≈ 618 µM) | > 256 µg/mL |  |  |  |  |  |
| N#CC1=C(N)OC2=C(C(=O)CCC2)C1c1cc(F)cc(F)c1 (stereo not given) | > 256 µg/mL |  | > 256 µg/mL |  | 319 µg/mL (≈ 1060 µM) | 624 µg/mL (≈ 2060 µM) | 164 µg/mL (≈ 543 µM) | 308 µg/mL (≈ 1020 µM) | > 256 µg/mL |  | 446 µg/mL (≈ 1480 µM) | 824 µg/mL (≈ 2730 µM) | > 256 µg/mL |  |  |  |  |  |
| CC1(C)CC(=O)C2=C(C1)OC(N)=C(C#N)C2c1ccccc1C#N (stereo not given) | > 256 µg/mL |  | > 256 µg/mL |  | 242 µg/mL (≈ 757 µM) | 512 µg/mL (≈ 1600 µM) | 249 µg/mL (≈ 778 µM) | 503 µg/mL (≈ 1580 µM) | > 256 µg/mL |  | 414 µg/mL (≈ 1300 µM) | 814 µg/mL (≈ 2550 µM) | > 256 µg/mL |  |  |  |  |  |
| CCN1CCN(C(=O)N[C@@H](C(=O)N[C@@H]2C(=O)N3[C@@H]2SC(C)(C)[C@@H]3C(=O)O)c2ccccc2)C(=O)C1=O [PIPERACILLIN] | 2 µg/mL (≈ 3.86 µM) |  | > 128 µg/mL |  |  |  |  |  | > 128 µg/mL |  |  |  | 8 µg/mL (≈ 15.5 µM) |  |  |  |  |  |
| COc1cc(C2C(C#N)=C(N)OC3=C2C(=O)CCC3)ccc1O (stereo not given) | > 256 µg/mL |  | > 256 µg/mL |  | 232 µg/mL (≈ 744 µM) | 462 µg/mL (≈ 1480 µM) | 114 µg/mL (≈ 364 µM) | 219 µg/mL (≈ 700 µM) | > 256 µg/mL |  | 208 µg/mL (≈ 666 µM) | 399 µg/mL (≈ 1280 µM) | > 256 µg/mL |  |  |  |  |  |
